Reference: patent publication US20160136246A1, “Novel Uses of GLP-1 Receptor Agonists in Patients Treated with Insulin and/or Suffering from Type 1 Diabetes” (NOVO NORDISK A/S, priority 2013, published 2016)

Assays:
[1] = tested on: adults with type 1 diabetes; assay: Randomised, double-blind crossover trial of liraglutide adjunct to insulin, 4 weeks of treatment: glycaemic control and safety; format: in vivo, human; details: for Asymptomatic hypoglycaemic episodes, N = number of subjects / Asymptomatic hypoglycaemic episodes, percentage of subjects / Documented symptomatic hypoglycaemic episodes, N = number of subjects / Documented symptomatic hypoglycaemic episodes, percentage of subjects / Probable symptomatic hypoglycaemic episodes, E = number of events / Probable symptomatic hypoglycaemic episodes, N = number of subjects / Probable symptomatic hypoglycaemic episodes, percentage of subjects / Severe hypoglycaemic episodes, E = number of events / Severe hypoglycaemic episodes, N = number of subjects / Severe hypoglycaemic episodes, percentage of subjects / Total ADA classified hypoglycaemic episodes, E = number of events / Total ADA classified hypoglycaemic episodes, N = number of subjects / Total ADA classified hypoglycaemic episodes, percentage of subjects: during treatment
Procedure: Subjects received target dose for a minimum of 2 weeks.
After 4 weeks of treatment, estimated treatment differences in insulin dose, HbA1c, pulse and body weight were assessed. Hypoglycaemia and hypoglycaemic episodes and overall safety parameters were assessed throughout the treatment period.
Hypoglycaemia and/or hypoglycaemic episodes were defined and assessed according to the ADA Hypoglycaemic Classification (FIG. 3).

[2] = tested on: adults with type 1 diabetes; assay: Stepwise hypoglycaemic clamp at the end of each treatment period; format: in vivo, human
Procedure: A stepwise hypoglycaemic clamp was performed at the end of each treatment period via controlled i.v. insulin/glucose infusion (FIG. 5). The successive plasma glucose (PG) levels were 5.5, 3.5, 2.5 mmol/L (nadir), and 4.0 mmol/L (recovery). Counterregulatory hormones (glucagon, adrenalin, noradrenalin, cortisol, and growth hormone) and vital signs (pulse, blood pressure) were measured at each successive PG level during the clamp. Glucose infusion rate was also assessed.

[3] = in humans; cited from earlier work
[4] = 0.6 mg liraglutide, during the trial
[5] = 1.2 mg liraglutide, during the trial
[6] = 1.8 mg liraglutide, during the trial

## CCCCCCCCCCCCCCCC(=O)N[C@@H](CCC(=O)NCCCC[C@H](NC(=O)[C@H](C)NC(=O)[C@H](C)NC(=O)[C@H](CCC(N)=O)NC(=O)CNC(=O)[C@H](CCC(=O)O)NC(=O)[C@H](CC(C)C)NC(=O)[C@H](Cc1ccc(O)cc1)NC(=O)[C@H](CO)NC(=O)[C@H](CO)NC(=O)[C@@H](NC(=O)[C@H](CC(=O)O)NC(=O)[C@H](CO)NC(=O)[C@@H](NC(=O)[C@H](Cc1ccccc1)NC(=O)[C@@H](NC(=O)CNC(=O)[C@H](CCC(=O)O)NC(=O)[C@H](C)NC(=O)[C@@H](N)Cc1cnc[nH]1)[C@@H](C)O)[C@@H](C)O)C(C)C)C(=O)N[C@@H](CCC(=O)O)C(=O)N[C@@H](Cc1ccccc1)C(=O)N[C@H](C(=O)N[C@@H](C)C(=O)N[C@@H](Cc1c[nH]c2ccccc12)C(=O)N[C@@H](CC(C)C)C(=O)N[C@H](C(=O)N[C@@H](CCCNC(=N)N)C(=O)NCC(=O)N[C@@H](CCCNC(=N)N)C(=O)NCC(=O)O)C(C)C)[C@@H](C)CC)C(=O)O [liraglutide]
[1]; [4]
  AEs leading to withdrawal, E = number of events: 1
  AEs leading to withdrawal, N = number of subjects: 1
  AEs leading to withdrawal, percentage of subjects: 6.7%
  Abdominal distention, E = number of events: 1
  Abdominal distention, N = number of subjects: 1
  Abdominal distention, percentage of subjects: 6.7%
  Abdominal pain (N % E, given as a single 0): 0/0
  Adverse events, total number of events, E = number of events: 27
  Adverse events, total number of events, N = number of subjects: 12
  Adverse events, total number of events, percentage of subjects: 80.0%
  Diarrhea (N % E, given as a single 0): 0/
  Dyspepsia (N % E, given as a single 0): 0/0
  Flatulence, E = number of events: 1
  Flatulence, N = number of subjects: 1
  Flatulence, percentage of subjects: 6.7%
  Nausea, E = number of events: 8
  Nausea, N = number of subjects: 8
  Nausea, percentage of subjects: 53.3%
  Regurgitation, E = number of events: 1
  Regurgitation, N = number of subjects: 1
  Regurgitation, percentage of subjects: 6.7%
  Serious AEs (N % E, given as a single 0): 0/0
  Total number of GI AEs, E = number of events: 12
  Total number of GI AEs, N = number of subjects: 10
  Total number of GI AEs, percentage of subjects: 66.7%
  Upper abdominal pain (N % E, given as a single 0): 0/0
  Vomiting, E = number of events: 1
  Vomiting, N = number of subjects: 1
  Vomiting, percentage of subjects: 6.7%
[1]; 0.6 mg liraglutide
  Asymptomatic hypoglycaemic episodes, N = number of subjects: 12
  Asymptomatic hypoglycaemic episodes, percentage of subjects: 80.0%
  Documented symptomatic hypoglycaemic episodes, N = number of subjects: 13
  Documented symptomatic hypoglycaemic episodes, percentage of subjects: 86.7%
  Probable symptomatic hypoglycaemic episodes, E = number of events: 3
  Probable symptomatic hypoglycaemic episodes, N = number of subjects: 1
  Probable symptomatic hypoglycaemic episodes, percentage of subjects: 6.7%
  Severe hypoglycaemic episodes, E = number of events: 0 (0) 0/
  Severe hypoglycaemic episodes, N = number of subjects: 0 (0) 0/
  Severe hypoglycaemic episodes, percentage of subjects: 0 (0) 0/ %
  Total ADA classified hypoglycaemic episodes, E = number of events: 289
  Total ADA classified hypoglycaemic episodes, N = number of subjects: 14
  Total ADA classified hypoglycaemic episodes, percentage of subjects: 93.3%
[1]; [5]
  AEs leading to withdrawal, E = number of events: 1
  AEs leading to withdrawal, N = number of subjects: 1
  AEs leading to withdrawal, percentage of subjects: 7.1%
  Abdominal distention, E = number of events: 3
  Abdominal distention, N = number of subjects: 3
  Abdominal distention, percentage of subjects: 21.4%
  Abdominal pain, E = number of events: 1
  Abdominal pain, N = number of subjects: 1
  Abdominal pain, percentage of subjects: 7.1%
  Adverse events, total number of events, E = number of events: 45
  Adverse events, total number of events, N = number of subjects: 14
  Adverse events, total number of events, percentage of subjects: 100%
  Diarrhea, E = number of events: 1
  Diarrhea, N = number of subjects: 1
  Diarrhea, percentage of subjects: 7.1%
  Dyspepsia, E = number of events: 1
  Dyspepsia, N = number of subjects: 1
  Dyspepsia, percentage of subjects: 7.1%
  Flatulence, E = number of events: 1
  Flatulence, N = number of subjects: 1
  Flatulence, percentage of subjects: 7.1%
  Nausea, E = number of events: 14
  Nausea, N = number of subjects: 11
  Nausea, percentage of subjects: 78.6%
  Regurgitation, E = number of events: 2
  Regurgitation, N = number of subjects: 2
  Regurgitation, percentage of subjects: 14.3%
  Serious AEs (N % E, given as a single 0): 0/0
  Total number of GI AEs, E = number of events: 24
  Total number of GI AEs, N = number of subjects: 12
  Total number of GI AEs, percentage of subjects: 85.7%
  Upper abdominal pain (N % E, given as a single 0): 0/0
  Vomiting, E = number of events: 1
  Vomiting, N = number of subjects: 1
  Vomiting, percentage of subjects: 7.1%
[1]; 1.2 mg liraglutide
  Asymptomatic hypoglycaemic episodes, N = number of subjects: 10
  Asymptomatic hypoglycaemic episodes, percentage of subjects: 71.4%
  Documented symptomatic hypoglycaemic episodes, N = number of subjects: 12
  Documented symptomatic hypoglycaemic episodes, percentage of subjects: 85.7%
  Probable symptomatic hypoglycaemic episodes, E = number of events: 1
  Probable symptomatic hypoglycaemic episodes, N = number of subjects: 1
  Probable symptomatic hypoglycaemic episodes, percentage of subjects: 7.1%
  Severe hypoglycaemic episodes, E = number of events: 0 (0) 0/
  Severe hypoglycaemic episodes, N = number of subjects: 0 (0) 0/
  Severe hypoglycaemic episodes, percentage of subjects: 0 (0) 0/ %
  Total ADA classified hypoglycaemic episodes, E = number of events: 263
  Total ADA classified hypoglycaemic episodes, N = number of subjects: 13
  Total ADA classified hypoglycaemic episodes, percentage of subjects: 92.9%
[1]; [6]
  AEs leading to withdrawal, E = number of events: 1
  AEs leading to withdrawal, N = number of subjects: 1
  AEs leading to withdrawal, percentage of subjects: 7.1%
  Abdominal distention, E = number of events: 5
  Abdominal distention, N = number of subjects: 5
  Abdominal distention, percentage of subjects: 35.7%
  Abdominal pain (N % E, given as a single 0): 0/
  Adverse events, total number of events, E = number of events: 54
  Adverse events, total number of events, N = number of subjects: 13
  Adverse events, total number of events, percentage of subjects: 92.9%
  Diarrhea, E = number of events: 5
  Diarrhea, N = number of subjects: 5
  Diarrhea, percentage of subjects: 35.7%
  Dyspepsia, E = number of events: 1
  Dyspepsia, N = number of subjects: 1
  Dyspepsia, percentage of subjects: 7.1%
  Flatulence (N % E, given as a single 0): 0/0
  Nausea, E = number of events: 13
  Nausea, N = number of subjects: 11
  Nausea, percentage of subjects: 78.6%
  Regurgitation, E = number of events: 1
  Regurgitation, N = number of subjects: 1
  Regurgitation, percentage of subjects: 7.1%
  Serious AEs (N % E, given as a single 0): 0/0
  Total number of GI AEs, E = number of events: 31
  Total number of GI AEs, N = number of subjects: 13
  Total number of GI AEs, percentage of subjects: 92.9%
  Upper abdominal pain, E = number of events: 2
  Upper abdominal pain, N = number of subjects: 2
  Upper abdominal pain, percentage of subjects: 14.3%
  Vomiting, E = number of events: 4
  Vomiting, N = number of subjects: 3
  Vomiting, percentage of subjects: 21.4%
[1]; 1.8 mg liraglutide
  Asymptomatic hypoglycaemic episodes, N = number of subjects: 13
  Asymptomatic hypoglycaemic episodes, percentage of subjects: 92.9%
  Documented symptomatic hypoglycaemic episodes, N = number of subjects: 14
  Documented symptomatic hypoglycaemic episodes, percentage of subjects: 100%
  Probable symptomatic hypoglycaemic episodes, E = number of events: 4
  Probable symptomatic hypoglycaemic episodes, N = number of subjects: 1
  Probable symptomatic hypoglycaemic episodes, percentage of subjects: 7.1%
  Severe hypoglycaemic episodes, E = number of events: 0 (0) 0/
  Severe hypoglycaemic episodes, N = number of subjects: 0 (0) 0/
  Severe hypoglycaemic episodes, percentage of subjects: 0 (0) 0/ %
  Total ADA classified hypoglycaemic episodes, E = number of events: 316
  Total ADA classified hypoglycaemic episodes, N = number of subjects: 14
  Total ADA classified hypoglycaemic episodes, percentage of subjects: 100%
[1]; during liraglutide treatment
  Number of adverse events (AEs) compared to placebo: higher
[1]; liraglutide adjunct to insulin
  Gastrointestinal (GI) AEs compared to placebo: more
  Number of hypoglycaemias or overall number of hypoglycaemic episodes (ADA classification): did not affect
  Severity of GI AEs: mild or moderate
[1]; short-term trial, subjects with type 1 diabetes
  Safety or tolerability issues: No unexpected liraglutide-related safety or tolerability issues
[2]; 0.6 mg group vs placebo
  Change in pulse from plasma glucose […] to nadir, estimated treatment difference: 0.6 BPM
[2]; 1.2 mg group vs placebo
  Change in pulse from plasma glucose […] to nadir, estimated treatment difference: 2.3 BPM
[2]; 1.8 mg group vs placebo
  Change in pulse from plasma glucose […] to nadir, estimated treatment difference: −3.4 BPM
[2]; all plasma glucose levels, all liraglutide doses
  Pulse compared to placebo: significantly higher
[2]; during hypoglycaemic clamp
  Other counterregulatory hormones to hypoglycaemia, liraglutide vs placebo: no systematic differences
  Systolic and diastolic blood pressure, liraglutide vs placebo: no systematic differences

## GLP-1: glucagon-like peptide-1, a product of proglucagon, gut hormone
[3]
  plasma half-life: 2 min
